* marks the point of attachment. Biotin = O=C1N[C@H]2[C@H](CS[C@H]2CCCCC(=O)*)N1
How the values were obtained:
[1] = molecular target: T1, MMSc1 PDZ 8 (Homo sapiens, UniProt Q8NI35); assay: Peptide binding ELISA assay (PDZ Binding Assay), MMSC1 PDZ domain 8; settings: immobilized GST fusion of MMSc1 PDZ 8; biotinylated peptide pre-bound to streptavidin-alkaline phosphatase; colorimetric phosphatase assay
T1 construct: made in house; host or cells: E. coli
T1 sequence (Q8NI35 1437-1520 limits assumed): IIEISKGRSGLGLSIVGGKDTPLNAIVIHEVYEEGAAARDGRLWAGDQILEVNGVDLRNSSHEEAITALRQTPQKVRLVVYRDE
Source text: (§1) cDNAs encoding each of the MMSC1 PDZ domains (amino acid residues identified in Table 1), and any desired control proteins, were generated by PCR and subcloned as glutathione S-transferase (GST) fusions in pGEX vectors (Pharmacia). After sequencing to confirm expression construct integrity, the resulting clones were expressed in E. coli and the desired fusion proteins isolated with glutathione-agarose and recovered with glutathione elution. These fusion proteins or control proteins were then adsorbed to different wells of a 96-well ELISA plate and remaining sites blocked with BSA. Synthetic commercially synthesized peptides encoding the desired PDZ-binding domain (i.e., the 16 C-terminal amino acids of MMAC1, or the C-terminal peptide sequences of interacting proteins identified by the approach of Example 2, or the C-terminal peptide sequences identified by the approach of Example 3), or a control peptide, and biotinylated at the amino-terminus, were pre-bound to streptavidin-alkaline phosphatase in a 4:1 molar ratio. The biotinylated peptide streptavidin-alkaline phosphatase complexes were then blocked with free biotin. These pre-bound peptide streptavidin-alkaline phosphatase complexes were then incubated with the immobilized PDZ domains in wash buffer containing PBS, BSA and triton-X100. Unbound material was removed with repeated washes. Bound peptide/streptavidin-alkaline phosphatase complex was then quantitated by a colorimetric phosphatase assay read on a 96-well plate reader.
(§2) The following peptides were used in the initial study: […]

[2] = molecular target: T2, MMSc1 PDZ 9 (Homo sapiens, UniProt Q8NI35); assay: Peptide binding ELISA assay (PDZ Binding Assay), MMSC1 PDZ domain 9; settings: immobilized GST fusion of MMSc1 PDZ 9; biotinylated peptide pre-bound to streptavidin-alkaline phosphatase; colorimetric phosphatase assay
T2 construct: made in house; host or cells: E. coli
T2 sequence (Q8NI35 1533-1615 limits assumed): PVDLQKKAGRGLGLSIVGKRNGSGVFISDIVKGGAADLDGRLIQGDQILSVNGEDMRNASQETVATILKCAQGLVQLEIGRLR
Source text: as §1, §2

[3] = molecular target: T3, MMSc1 PDZ 5 (Homo sapiens, UniProt Q8NI35); assay: Peptide binding ELISA assay (PDZ Binding Assay), MMSC1 PDZ domain 5; settings: immobilized GST fusion of MMSc1 PDZ 5; biotinylated peptide pre-bound to streptavidin-alkaline phosphatase; colorimetric phosphatase assay
T3 construct: made in house; host or cells: E. coli
T3 sequence (Q8NI35 686-772 limits assumed): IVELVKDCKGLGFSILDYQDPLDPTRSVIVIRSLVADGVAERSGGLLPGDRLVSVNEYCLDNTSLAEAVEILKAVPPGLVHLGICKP
Source text: as §1, §2

[4] = molecular target: T4, MMSc1 PDZ 3 (Homo sapiens, UniProt Q8NI35); assay: Peptide binding ELISA assay (PDZ Binding Assay), MMSC1 PDZ domain 3; settings: immobilized GST fusion of MMSc1 PDZ 3; biotinylated peptide pre-bound to streptavidin-alkaline phosphatase; colorimetric phosphatase assay
T4 construct: made in house; host or cells: E. coli
T4 sequence (Q8NI35 365-453 limits assumed): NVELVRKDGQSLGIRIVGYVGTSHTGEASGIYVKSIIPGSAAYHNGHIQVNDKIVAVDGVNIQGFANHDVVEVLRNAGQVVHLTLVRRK
Source text: as §1, §2

[5] = molecular target: T5, MMSc1 PDZ 6 (Homo sapiens, UniProt Q8NI35); assay: Peptide binding ELISA assay (PDZ Binding Assay), MMSC1 PDZ domain 6; settings: immobilized GST fusion of MMSc1 PDZ 6; biotinylated peptide pre-bound to streptavidin-alkaline phosphatase; colorimetric phosphatase assay
T5 construct: made in house; host or cells: E. coli
T5 sequence (Q8NI35 1068-1160 limits assumed): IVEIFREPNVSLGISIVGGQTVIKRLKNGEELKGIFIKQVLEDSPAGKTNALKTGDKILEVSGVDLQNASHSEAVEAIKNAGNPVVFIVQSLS
Source text: as §1, §2

[6] = molecular target: T6, MMSc1 PDZ 7 (Homo sapiens, UniProt Q8NI35); assay: Peptide binding ELISA assay (PDZ Binding Assay), MMSC1 PDZ domain 7; settings: immobilized GST fusion of MMSc1 PDZ 7; biotinylated peptide pre-bound to streptavidin-alkaline phosphatase; colorimetric phosphatase assay
T6 construct: made in house; host or cells: E. coli
T6 sequence (Q8NI35 1239-1322 limits assumed): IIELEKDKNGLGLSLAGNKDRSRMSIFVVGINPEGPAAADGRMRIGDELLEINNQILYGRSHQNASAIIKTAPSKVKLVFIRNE
Source text: as §1, §2

Substance	A405 [1]	A405 [2]	A405 [3]	A405 [4]	A405 [5]	A405 [6]
Biotin-ENEPFDEDQHTQITKV-OH [MMAC]	0.30	0.10	0.00	0.01	0.23	1.25
Biotin-SGDDGDDPFLQYEFYV-OH [AF6]	0.29	2.41	0.02	2.24	1.46	1.05
Biotin-SGSGILAPPVPPRNTR-OH [SH3]	0.00	0.02	0.00	0.01	0.00	0.01

Reference: patent publication US6337192B1, “MMSC1-an MMAC1 interacting protein” (Myraid Genetics, Inc., priority 1998, dated 2002)
